Assay results as given in ChEMBL document CHEMBL1147813, “Design, molecular modeling, synthesis, and anti-HIV-1 activity of new indolyl aryl sulfones. Novel derivatives of the indole-2-carboxamide” (J Med Chem, 2006).

Columns and labels:
[1] = system: Lymphocyte; assay: Cytotoxicity against human lymphocytes; assay type: functional; details: read-out: TC50 (the source's name)
[2] = system: Human immunodeficiency virus 1; assay: Activity against HIV1 3B assessed by inhibition of p24 production in human lymphocytes; assay type: functional, organism-based; details: Human immunodeficiency virus 1, 3B
[3] = system: Human immunodeficiency virus; assay: Activity against HIV-112 assessed by inhibition of p24 production in human lymphocytes; assay type: functional, organism-based; details: Human immunodeficiency virus 1
[4] = system: Human immunodeficiency virus; assay: Activity against HIV-AB1 assessed by inhibition of p24 production in human lymphocytes; assay type: functional, organism-based; details: Human immunodeficiency virus 1
[5] = system: Lymphocyte; assay: Selectivity index, TC50 for human lymphocytes/EC50 for HIV1 3B; assay type: functional
[6] = system: Lymphocyte; assay: Selectivity index, TC50 for human lymphocytes/EC50 for HIV-112; assay type: functional
[7] = system: Lymphocyte; assay: Selectivity index, TC50 for human lymphocytes/EC50 for HIV-AB1; assay type: functional
[8] = system: Macrophage; assay: Cytotoxicity against human macrophages; assay type: functional; details: read-out: TC50 (the source's name)
[9] = system: Human immunodeficiency virus 1; assay: Antiviral activity against HIV1 […] in human macrophages; assay type: functional, organism-based
[10] = system: Macrophage; assay: Selectivity index, TC50 for human macrophages/EC50 for HIV1 […]; assay type: functional
[11] = system: MT4; assay: Cytotoxicity against MT4 cell line by MTT assay; assay type: functional; details: Homo sapiens, read-out: TC50 (the source's name)
[12] = system: Human immunodeficiency virus 1; assay: Antiviral activity against HIV1 in MT4 cell line; assay type: functional, organism-based; details: Human immunodeficiency virus 1, MT4
[13] = system: MT4; assay: Selectivity index, TC50 for MT4 cell line/EC50 for HIV1; assay type: functional
[14] = system: C8166; assay: Antiproliferative activity against C8166 cell line by MTT assay; assay type: functional; details: Homo sapiens, read-out: TC50 (the source's name)
[15] = system: Human immunodeficiency virus 1; assay: Antiviral activity against HIV1 in C8166 cell line; assay type: functional, organism-based; details: Human immunodeficiency virus 1, C8166
[16] = system: C8166; assay: Selectivity index, TC50 for C8166 cell line/EC50 for HIV1; assay type: functional
[17] = system: Human immunodeficiency virus 1; assay: Antiviral activity against HIV1 3B in MT4 cell line; assay type: functional, organism-based; details: Human immunodeficiency virus 1, 3B
[18] = system: Human immunodeficiency virus 1; assay: Antiviral activity against HIV1 Y181C mutant in MT4 cell line; assay type: functional, organism-based; details: Human immunodeficiency virus 1, MT4
[19] = system: Human immunodeficiency virus 1; assay: Antiviral activity against HIV1 K103N-Y181C mutant in MT4 cell line; assay type: functional, organism-based; details: Human immunodeficiency virus 1, MT4

SMILES | CC50 [1] [nM] | EC50 [2] [nM] | EC50 [3] [nM] | EC50 [4] [nM] | Selectivity index [5] | Selectivity index [6] | Selectivity index [7] | CC50 [8] [nM] | EC50 [9] [nM] | Selectivity index [10] | CC50 [11] [nM] | EC50 ([12]; read-out: EC50) [nM] | EC50 ([12]; read-out: Log EC50 (converted)) [nM] | Selectivity index [13] | CC50 [14] [nM] | EC50 [15] [nM] | Selectivity index [16] | EC50 [17] [nM] | EC50 [18] [nM] | EC50 [19] [nM]
CCOC(=O)NNC(=O)c1[nH]c2ccc(Cl)cc2c1S(=O)(=O)c1cc(C)cc(C)c1 | > 100000 | 20 | 30 | 20 | >5000 | >3333 | >5000 | > 100000 | 6 | >16666 | 100000 | 20 | 20 | 5000 | > 100000 | 50 | >2000 | 20 | 40 | 9200
CNNC(=O)c1[nH]c2ccc(Cl)cc2c1S(=O)(=O)c1cc(C)cc(C)c1 | > 100000 | 20 | 40 | 20 | >5000 | >2500 | >5000 | > 100000 | 30 | >3333 | > 100000 | 20 | 20 | >5000 | > 100000 | 30 | >3333 | 50 | 130 | > 20000
Cc1cc(C)cc(S(=O)(=O)c2c(C(=O)NNC3CCCCC3)[nH]c3ccc(Cl)cc23)c1 | > 100000 | 800 | 1000 | 900 | >125 | >100 | >111 | > 100000 | 200 | >500 | > 100000 | 50 | 50 | >2000 | > 100000 | 80 | >1250 | 100 | 1200 | > 20000
Cc1cc(C)cc(S(=O)(=O)c2c(C(=O)NNC(=O)NN)[nH]c3ccc(Cl)cc23)c1 | > 100000 | 30 | 50 | 40 | >3333 | >2000 | >2500 | > 100000 | 9 | >11111 | > 100000 | 10 | 10 | >10000 | > 100000 | 8 | >12500 | 40 | 20 | 5700
CC(=O)NNC(=O)c1[nH]c2ccc(Cl)cc2c1S(=O)(=O)c1cc(C)cc(C)c1 | > 100000 | 10 | 8 | 10 | >10000 | >12500 | >10000 | > 100000 | 8 | >12500 | > 100000 | 5 | 5 | >20000 | > 100000 | 7 | >14285 | 5 | 20 | > 20000
Cc1cc(C)cc(S(=O)(=O)c2c(C(=O)NNC(C)C)[nH]c3ccc(Cl)cc23)c1 | > 100000 | 8 | 6 | 8 | >12500 | >16666 | >12500 | > 100000 | 5 | >20000 | > 100000 | 0.7 | 0.7 | >142857 | > 100000 | 3 | >33333 | 0.7 | 40 | 8600
O=C(NN1CCOC1=O)c1[nH]c2ccc(Cl)cc2c1S(=O)(=O)c1ccccc1 | > 100000 | 100 | 400 | 500 | >1000 | >250 | >200 | > 100000 | 60 | >1666 | > 100000 | 15 | 15 | >6666 | > 100000 | 20 | >5000 | 15 | 300 | > 20000
